Where two headings read alike, the source gives them in different places.
Key:
human osteoclasts [1] = assay: Human osteoclast resorption assay; format: cell-based
Protocol: Bone resorption was studied using a model where human osteoclast precursor cells were cultured on bovine bone slices for 9 days and allowed to differentiate into bone-resorbing osteoclasts. The formed mature osteoclasts were then allowed to resorb bone. The assay was performed by Pharmatest Services Ltd, Itainen Pitkakatu 4C, Turku, Finland. After the culture period, bone collagen degradation products were quantified from the culture medium as an index of bone resorption. Inhibitor compounds were added into the cell cultures after the differentiation period and their effects on the resorbing activity of mature osteoclasts were determined. The studies included a baseline group without added compounds and a positive control group where a potent cathepsin K inhibitor E-64 was added.
Human peripheral blood monocytes were suspended to culture medium and allowed to attach to bovine bone slices. The bone slices were transferred into 96-well tissue culture plates containing culture medium with appropriate amounts of important growth factors favouring osteoclast differentiation, including M-CSF, RANK-ligand and TGF-β. The cells were incubated in a CO2 incubator in humidified atmosphere of 95% air and 5% carbon dioxide at 37° C. At day 7 when osteoclast differentiation was complete, the culture medium was replaced with culture medium containing conditions favouring osteoclast activity. The cell culture was continued for an additional 2 days, during which the formed mature osteoclasts were allowed to resorb bone in the presence of vehicle, control inhibitor (E64) or test compounds. At the end of the culture, bone collagen degradation products released into the culture medium were determined using a commercially available ELISA method (CrossLaps® for culture, Nordic Bioscience, Herlev, Denmark) as an index of bone resorption (see Bagger, Y. Z. et al, J. Bone. Miner. Res. 14 (suppl. 1), S370).

Plasma incubations = format: in vitro ADME; settings: 37° C., 25 μM
Protocol: Aliquots were removed at 2 and 60 minutes and quenched with an equal volume of cold acetonitrile. After mixing vigorously, the precipitated protein matter was removed by filtration (Multiscreen Solvinert filter plates, Millipore, Bedford, Mass., USA) and the filtrate analysed by reverse phase HPLC with mass spectrometric detection, using single ion monitoring of the [M+H]^+ species. Metabolic turnover was determined by comparison of peak areas from the ion chromatograms of the parent compound at 2 and 60 minutes and expressed as percent remaining at 1 hour.

[2] = Liver microsomal incubations; format: in vitro ADME; settings: human liver microsomes, 25 μM, NADPH
Protocol: All liver microsome incubations were carried out in 50 mM potassium phosphate buffer at pH 7.4, with a final microsomal protein concentration of 0.5 mg/mL. […] In brief, compounds were added to the incubation buffer along with the liver microsomes and incubated at 37° C. for 10 minutes. The reaction was then initiated by the addition of NADPH, previously dissolved in incubation buffer, to give a final concentration of 1 mM and re-incubated at 37° C. Aliquots were removed at 2 and 60 minutes and quenched with an equal volume of cold acetonitrile. After mixing vigorously, the precipitated protein matter was removed by filtration (Multiscreen Solvinert filter plates, Millipore, Bedford, Mass., USA) and the filtrate analysed by reverse phase HPLC with mass spectrometric detection, using single ion monitoring of the [M+H]^+ species. Metabolic turnover was determined by comparison of peak areas from the ion chromatograms of the parent compound at 2 and 60 minutes and expressed as percent remaining at 1 hour.

rat osteoclasts = assay: Rat osteoclast resorption assay; format: cell-based
Protocol: Bone resorption was studied using a model where mature osteoclasts derived from rat bone were cultured on bovine bone slices for 3 days and allowed to resorb bone in the presence of inhibitor, positive control (E-64) or vehicle. More specifically, tibia, femori and humeri were removed from 1 day old rat pups. The endosteal surfaces of the bones were scraped with a scapelto release osteoclasts into the culture medium and the osteoclasts were allowed to attach to bovine bone slices. After the culture period, bone collagen degradation products were quantified from the culture medium as an index of bone resorption. The assay was performed by Pharmatest Services Ltd, Itäinen Pitkakatu 4C, Turku, Finland.

[3] = biological target: T1, Human recombinant cathepsin K (Homo sapiens, UniProt P43235); assay: In vitro cathepsin Ki inhibition measurements; format: biochemical; settings: Table 1, read-out: In vitro Ki (nM) vs Cath K
T1 construct: B. Turk, Josef, Stefan Institute, Ljubljana, Slovenia
T1 sequence (P43235 115-329): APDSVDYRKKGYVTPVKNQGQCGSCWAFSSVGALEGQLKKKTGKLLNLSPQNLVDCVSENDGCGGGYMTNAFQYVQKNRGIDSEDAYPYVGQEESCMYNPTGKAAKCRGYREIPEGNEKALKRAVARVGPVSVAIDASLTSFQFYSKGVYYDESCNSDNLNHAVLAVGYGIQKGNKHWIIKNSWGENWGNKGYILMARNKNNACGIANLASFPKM
Protocol: Stock solutions of substrate or inhibitor were made up to 10 mM in 100% dimethylsulfoxide (DMSO) (Rathburns, Glasgow, U.K.) and diluted as appropriately required. In all cases the DMSO concentration in the assays was maintained at less than 1% (vol./vol.). The equilibrium inhibition constants (Ki^ss) for each compound were measured under steady-state conditions monitoring enzyme activity as a function of inhibitor concentration. The values were calculated on the assumption of pure competitive behaviour (Cornish-Bowden, A. Fundamentals of enzyme kinetics Portland Press; 1995, 93-128). Human recombinant cathepsin K (0.25 nM final; B. Turk, Josef, Stefan Institute, Ljubljana, Slovenia), was routinely assayed in 100 mM sodium acetate; pH 5.5 containing 1 mM EDTA, 10 mM L-cysteine and 1.8 μM Z-Leu-Arg-AMC ([S]=KM).
The apparent inhibition constant (Ki) for each compound was determined on the basis that inhibition was reversible and occurred by a pure-competitive mechanism. The Ki values were calculated, from the dependence of enzyme activity as a function of inhibitor concentration, by direct regression analysis (Prism v 3.02) using Equation 2 (Cornish-Bowden, A., 1995).
In situations where the apparent dissociation constant (Ki^app) approached the enzyme concentrations, the Ki^app values were calculated using a quadratic solution in the form described by Equation 3 (Morrison, J. F. Trends Biochem. Sci., 7, 102-105, 1982; Morrison, J. F. Biochim. Biophys. Acta, 185, 269-286, 1969; Stone, S. R. and Hofsteenge, J. Biochemistry, 25, 4622-4628, 1986).
Curves were fitted by non-linear regression analysis (Prism) using a fixed value for the enzyme concentration. Equation 4 was used to account for the substrate kinetics, where ‘Ki’ is the inhibition constant, ‘[So]’ is the initial substrate concentration and ‘KM^app’ is the apparent macroscopic binding (Michaelis) constant for the substrate (Morrison, 1982).

LogD determinations = format: physicochemical; settings: 1-octanol/PBS; PBS pH 7.4/1-octanol, ion-count method
Protocol: LogD(PBS) determinations were performed in 96 well microtitre plates using a miniaturised “shake-flask” method. […] The plates were then capped and mixed vigorously for 1 hour on a microtitre plate shaker, after which they were left to stand, allowing the PBS and octanol phases to separate. The PBS layer was analysed by reverse phase HPLC with mass spectrometric detection, using single ion monitoring of the [M+H]^+ species.
Where AUCstd and AUCpbs are the peak areas from the standard and test ion chromatograms respectively.

human osteoclasts [4] = settings: human osteoclast, literature value; cited from earlier work
[5] = human osteoclast bone resorption, read-out: Cell-based % Inh. @ 1 μM Human
[6] = human osteoclast, read-out: inhibition of human osteoclast activity
[7] = 1 μM, rat osteoclast bone resorption, read-out: Cell-based % Inh. @ 1 μM Rat
[8] = rat osteoclast, 1 μM per table 1, read-out: rat osteoclast data (inhibition)

Human Plasma Stability % rem. @ 1 h (Plasma incubations) [%] | HLM % rem. @ 1 h [2] [%] | Ki [3] [nM] | logD (LogD determinations) | Compound | inhibition at 1 µM (human osteoclasts [1]; [5]) [%] | inhibition at 1 µM (human osteoclasts [1]; [6]) [%] | inhibition at 1 µM (rat osteoclasts; [7]) [%] | inhibition at 1 µM (rat osteoclasts; [8]) [%] | Cell-based % Inh. @ 1 μM Human (Lit.) (human osteoclasts [4])
95 | 95 | – | – | CC(C)C[C@H](NC(=O)c1ccc(N2CCN(C)CC2)cc1)C(=O)N1CC[C@H]2OCC(=O)[C@H]21 [EXAMPLE 1, 4-(4-methylpiperazin-1-yl)-N—((S)-4-methyl-1-oxo-1-((3aS,6aR)-3-oxodihydro-2H-furo[3,2-b]pyrrol-4(5H,6H,6aH)-yl)pentan-2-yl)benzamide, reference compound] | 55 | – | – | – | –
93 | 88 | 15 | 0.74 | CCN1CCN(c2ccc(C(=O)N[C@@H](CC(C)C)C(=O)N3CC[C@H]4OCC(=O)[C@H]43)cc2)CC1 [EXAMPLE 2, 4-(4-ethylpiperazin-1-yl)-N—((S)-4-methyl-1-oxo-1-((3aS,6aR)-3-oxodihydro-2H-furo[3,2-b]pyrrol-4(5H,6H,6aH)-yl)pentan-2-yl)benzamide] | 58 | 58 | 40 | – | –
93 | 83 | 4 | 1.88 | CC(C)C[C@H](NC(=O)c1ccc(N2CCN(C3CC3)CC2)cc1)C(=O)N1CC[C@H]2OCC(=O)[C@H]21 [EXAMPLE 6, 4-(4-cyclopropylpiperazin-1-yl)-N—((S)-4-methyl-1-oxo-1-((3aS,6aR)-3-oxodihydro-2H-furo[3,2-b]pyrrol-4(5H,6H,6aH)-yl)pentan-2-yl)benzamide] | 74 | 73 to 82 | 22 | 22 | –
92 | 81 | 3 | 1.88 | CC(C)C[C@H](NC(=O)c1ccc(N2CCN(C3CCC3)CC2)cc1)C(=O)N1CC[C@H]2OCC(=O)[C@H]21 [EXAMPLE 7, 4-(1-cyclobutylpiperazin-4-yl)-N—((S)-4-methyl-1-oxo-1-((3aS,6aR)-3-oxodihydro-2H-furo[3,2-b]pyrrol-4(5H,6H,6aH)-yl)pentan-2-yl)benzamide] | 82 | 73 to 82 | 40 | 40 | –
90 | 83 | 5 | 0.95 | CC(C)C[C@H](NC(=O)c1ccc(C2CCN(C3CCC3)CC2)cc1)C(=O)N1CC[C@H]2OCC(=O)[C@H]21 [compound 10, 4-(1-cyclobutylpiperidin-4-yl)-N—((S)-4-methyl-1-oxo-1-((3aS,6aR)-3-oxodihydro-2H-furo[3,2-b]pyrrol-4(5H,6H,6aH)-yl)pentan-2-yl)benzamide] | – | – | – | – | –

More lines, now with the values behind:

Compound | Human Plasma Stability % rem. @ 1 h (Plasma incubations) [%] | HLM % rem. @ 1 h [2] [%] | Ki [3] [nM] | logD (LogD determinations) | inhibition at 1 µM (human osteoclasts [1]; [5]) [%] | inhibition at 1 µM (human osteoclasts [1]; [6]) [%] | inhibition at 1 µM (rat osteoclasts; [7]) [%] | inhibition at 1 µM (rat osteoclasts; [8]) [%] | Cell-based % Inh. @ 1 μM Human (Lit.) (human osteoclasts [4])
CCCN1CCN(c2ccc(C(=O)N[C@@H](CC(C)C)C(=O)N3CC[C@H]4OCC(=O)[C@H]43)cc2)CC1 [EXAMPLE 3, N—((S)-4-methyl-1-oxo-1-((3aS,6aR)-3-oxo-dihydro-2H-furo[3,2-b]pyrrol-4(5H,6H,6aH)-yl)pentan-2-yl)-4-(4-propylpiperazin-1-yl)benzamide] | 89 | 83 | 18 | 1.66 | 73 | 73 to 82 | 65 | 65 | –
CC(C)C[C@H](NC(=O)c1ccc(N2CCN(C(C)C)CC2)cc1)C(=O)N1CC[C@H]2OCC(=O)[C@H]21 [EXAMPLE 4, 4-(4-isopropylpiperazin-1-yl)-N—((S)-4-methyl-1-oxo-1-((3aS,6aR)-3-oxodihydro-2H-furo[3,2-b]pyrrol-4(5H,6H,6aH)-yl)pentan-2-yl)benzamide] | 91 | 88 | 19 | 1.21 | 74 | 73 to 82 | 25 | 25 | –
COCCN1CCN(c2ccc(C(=O)N[C@@H](CC(C)C)C(=O)N3CC[C@H]4OCC(=O)[C@H]43)cc2)CC1 [EXAMPLE 5, 4-(4-(2-methoxyethyl)piperazin-1-yl)-N—((S)-4-methyl-1-oxo-1-((3aS,6aR)-3-oxodihydro-2H-furo[3,2-b]pyrrol-4(5H,6H,6aH)-yl)pentan-2-yl)benzamide] | 98 | 90 | 29 | 0.9 | 57 | 57 | 65 | 65 | –
COCCN1CCC(c2ccc(C(=O)N[C@@H](CC(C)C)C(=O)N3CC[C@H]4OCC(=O)[C@H]43)cc2)CC1 [EXAMPLE 8, 4-(1-(2-methoxyethyl)piperidin-4-yl)-N—((S)-4-methyl-1-oxo-1-((3aS,6aR)-3-oxodihydro-2H-furo[3,2-b]pyrrol-4(5H,6H,6aH)-yl)pentan-2-yl)benzamide] | 98 | 88 | 36 | 0.61 | 23 | 23 | 52 | 52 | –
CC(C)C[C@H](NC(=O)c1ccc(C2CCN(C3CC3)CC2)cc1)C(=O)N1CC[C@H]2OCC(=O)[C@H]21 [compound 9, 4-(1-cyclopropylpiperidin-4-yl)-N—((S)-4-methyl-1-oxo-1-((3aS,6aR)-3-oxodihydro-2H-furo[3,2-b]pyrrol-4(5H,6H,6aH)-yl)pentan-2-yl)benzamide] | 93 | 82 | 8 | 1.99 | – | – | – | – | –
CC(C)C[C@H](NC(=O)c1ccc(C(C)(C)C)cc1)C(=O)N1CC[C@H]2OCC(=O)[C@H]21 [prior art compound 23, reference compound] | 75 | 70 | – | – | – | – | – | – | Lit. 60%

— patent publication US7846935B2, “Furo[3,2-B]pyrrol-3-one derivatives and their use as cysteinyl proteinase inhibitors” (Amura Therapeutics Limited, priority 2006, dated 2010)
